From US20260295053A1, “COMPOUNDS FOR DEGRADATION AND INHIBITION OF KRAS (G12D) PROTEIN” (Shenzhen Ionova Life Science Co., Ltd., priority 2023, published 2026)

Assays:
KRAS (G12D) = target: T1, KRAS (G12D) (Homo sapiens, UniProt P01116, G12D); assay: KRAS (G12D) cellular degradation assay in AsPC-1 cells; assay type: cell-based; details: 24 hours, antibody fluorescence (Odyssey CLX), DC50 half-maximal degradation concentration
T1 construct: in-cell western with KRAS G12D antibody after 24 h
Outline: (§1)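 AsPC-1 cells: for degradation, grown to ~90% confluency, treated 24 h with 1:3 compound series ([…] to 1.5 nM), then fixed and immunostained for KRAS G12D and β-actin, read by infrared fluorescence, DC50 fitted. Proliferation: 3,500 cells/well, 6-day treatment, CellTiter Glo luminescence, IC50 fitted.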

AsPC-1 cells = assay: AsPC-1 cell proliferation assay (CellTiter Glo); assay type: cell-based; details: 6 days
Outline: as §1

T1 sequence (P01116 1-188 isoform P01116-2 G12D): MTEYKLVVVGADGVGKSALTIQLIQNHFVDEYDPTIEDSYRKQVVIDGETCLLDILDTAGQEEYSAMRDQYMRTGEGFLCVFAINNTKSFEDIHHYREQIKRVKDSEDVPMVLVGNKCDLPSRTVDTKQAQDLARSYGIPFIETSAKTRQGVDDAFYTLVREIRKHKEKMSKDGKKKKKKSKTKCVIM

Row | DC50 (KRAS (G12D)) [nM] | IC50 (AsPC-1 cells; Homo sapiens, ASPC1, 144 h) [nM] | IC50 (AsPC-1 cells) [nM] | SMILES
1 | 10 to 100 | 10 to 100 |  | CCn1nccc1-c1ccc([C@H](CO)NC(=O)[C@@H]2C[C@@H](O)CN2C(=O)[C@H](C(C)C)n2cc(-c3ccc(COc4c(-c5c(C)c(F)cc6[nH]ncc56)c(C5CC5)cc5c(N6C7CNCC6COC7)nc(OC[C@H](C)OC)nc45)cc3)nn2)cc1 [Example 61, (2S,4R)-1-((2S)-2-(4-(4-(((4-(3-oxa-7,9-diazabicyclo[3.3.1]nonan-9-yl)-6-cyclopropyl-7-(6-fluoro-5-methyl-1H-indazol-4-yl)-2-((S)-2-methoxypropoxy)quinazolin-8-yl)oxy)methyl)phenyl)-1H-1,2,3-triazol-1-yl)-3-methylbutanoyl)-N—((R)-1-(4-(1-ethyl-1H-pyrazol-5-yl)phenyl)-2-hydroxyethyl)-4-hydroxypyrrolidine-2-carboxamide]
2 | > 1000 |  | > 1000 | CCn1nccc1-c1ccc([C@H](CO)NC(=O)[C@@H]2C[C@@H](O)CN2C(=O)[C@H](C(C)C)n2cc(-c3ccc(COc4c(-c5c(C)c(F)cc6[nH]ncc56)c(C5CC5)cc5c(N6C[C@H]7C[C@@H]6CN7)nc(OC[C@H](C)OC)nc45)cc3)nn2)cc1 (single isomer, unassigned) [Example 1B]
3 | < 10 | < 10 |  | CCn1nccc1-c1ccc([C@@H](NC(=O)[C@@H]2C[C@@H](O)CN2C(=O)[C@H](C(C)C)n2cc(-c3ccc(COc4c(-c5c(C)c(F)cc6[nH]ncc56)c(C5CC5)cc5c(N6C[C@@H]7C[C@H]6CN7)nc(OC6CC7(CCOCC7)C6)nc45)cc3)nn2)[C@H](C)O)cc1 [Example 113, (2S,4R)-1-((2S)-2-(4-(4-(((2-((7-oxaspiro[3.5]nonan-2-yl)oxy)-4-((15,45)-2,5-diazabicyclo[2.2.1]heptan-2-yl)-6-cyclopropyl-7-(6-fluoro-5-methyl-1H-indazol-4-yl)quinazolin-8-yl)oxy)methyl)phenyl)-1H-1,2,3-triazol-1-yl)-3-methylbutanoyl)-N-((1R,2S)-1-(4-(1-ethyl-1H-pyrazol-5-yl)phenyl)-2-hydroxypropyl)-4-hydroxypyrrolidine-2-carboxamide]
4 | < 10 | < 10 |  | CCn1nccc1-c1ccc([C@@H](NC(=O)[C@@H]2C[C@@H](O)CN2C(=O)[C@H](C(C)C)n2cc(-c3ccc(COc4c(-c5c(C)c(F)cc6[nH]ncc56)c(C5CC5)cc5c(N6CCCNCC6)nc(OC[C@H](C)OC)nc45)cc3)nn2)[C@H](C)O)cc1 [Example 184, (2S,4R)-1-((2S)-2-(4-(4-(((6-cyclopropyl-4-(1,4-diazepan-1-yl)-7-(6-fluoro-5-methyl-1H-indazol-4-yl)-2-((S)-2-methoxypropoxy)quinazolin-8-yl)oxy)methyl)phenyl)-1H-1,2,3-triazol-1-yl)-3-methylbutanoyl)-N-((1R,2S)-1-(4-(1-ethyl-1H-pyrazol-5-yl)phenyl)-2-hydroxypropyl)-4-hydroxypyrrolidine-2-carboxamide]
5 | < 10 | < 10 |  | CCn1nccc1-c1ccc([C@H](CO)NC(=O)[C@@H]2C[C@@H](O)CN2C(=O)[C@H](C(C)C)n2cc(-c3ccc(COc4c(-c5c(C)c(F)cc6[nH]ncc56)c(C5CC5)cc5c(N6C[C@@H]7C[C@H]6CN7)nc(OC6CCC7(CC6)COC7)nc45)cc3)nn2)cc1 [Example 43, (2S,4R)-1-((2S)-2-(4-(4-(((2-((2-oxaspiro[3.5]nonan-7-yl)oxy)-4-((1S,4S)-2,5-diazabicyclo[2.2.1]heptan-2-yl)-6-cyclopropyl-7-(6-fluoro-5-methyl-1H-indazol-4-yl)quinazolin-8-yl)oxy)methyl)phenyl)-1H-1,2,3-triazol-1-yl)-3-methylbutanoyl)-N—((R)-1-(4-(1-ethyl-1H-pyrazol-5-yl)phenyl)-2-hydroxyethyl)-4-hydroxypyrrolidine-2-carboxamide]
6 | < 10 | < 10 |  | CCn1nccc1-c1ccc([C@H](CO)NC(=O)[C@@H]2C[C@@H](O)CN2C(=O)[C@H](C(C)C)n2cc(-c3ccc(COc4c(-c5c(C)c(F)cc6[nH]ncc56)c(C5CC5)cc5c(N6CCCOCC6)nc(OC[C@H](C)OC)nc45)cc3)nn2)cc1 [Example 180, (2S,4R)-1-((2S)-2-(4-(4-(((6-cyclopropyl-7-(6-fluoro-5-methyl-1H-indazol-4-yl)-2-((S)-2-methoxypropoxy)-4-(1,4-oxazepan-4-yl)quinazolin-8-yl)oxy)methyl)phenyl)-1H-1,2,3-triazol-1-yl)-3-methylbutanoyl)-N—((R)-1-(4-(1-ethyl-1H-pyrazol-5-yl)phenyl)-2-hydroxyethyl)-4-hydroxypyrrolidine-2-carboxamide]
7 | < 10 | < 10 |  | Cc1ncsc1-c1ccc([C@H](CO)NC(=O)[C@@H]2C[C@@H](O)CN2C(=O)[C@H](C(C)C)n2cc(-c3ccc(COc4c(-c5c(C)c(F)cc6[nH]ncc56)c(C5CC5)cc5c(N6C[C@@H]7C[C@H]6CN7)nc(OC6CC7(COC7)C6)nc45)cc3)nn2)cc1 [Example 129, (2S,4R)-1-((2S)-2-(4-(4-(((2-((2-oxaspiro[3.3]heptan-6-yl)oxy)-4-((1S,4S)-2,5-diazabicyclo[2.2.1]heptan-2-yl)-6-cyclopropyl-7-(6-fluoro-5-methyl-1H-indazol-4-yl)quinazolin-8-yl)oxy)methyl)phenyl)-1H-1,2,3-triazol-1-yl)-3-methylbutanoyl)-4-hydroxy-N—((R)-2-hydroxy-1-(4-(4-methylthiazol-5-yl)phenyl)ethyl)pyrrolidine-2-carboxamide]
8 | < 10 | < 10 |  | Cc1ncsc1-c1ccc([C@@H](NC(=O)[C@@H]2C[C@@H](O)CN2C(=O)[C@H](C(C)C)n2cc(-c3ccc(COc4c(-c5c(C)c(F)cc6[nH]ncc56)c(C5CC5)cc5c(N6C[C@@H]7C[C@H]6CN7)nc(OC6CCC7(CC6)COC7)nc45)cc3)nn2)[C@H](C)O)cc1 [Example 96, (2S,4R)-1-((2S)-2-(4-(4-(((2-((2-oxaspiro[3.5]nonan-7-yl)oxy)-4-((1S,4S)-2,5-diazabicyclo[2.2.1]heptan-2-yl)-6-cyclopropyl-7-(6-fluoro-5-methyl-1H-indazol-4-yl)quinazolin-8-yl)oxy)methyl)phenyl)-1H-1,2,3-triazol-1-yl)-3-methylbutanoyl)-4-hydroxy-N-((1R,2S)-2-hydroxy-1-(4-(4-methylthiazol-5-yl)phenyl)propyl)pyrrolidine-2-carboxamide]
9 | < 10 | < 10 |  | CCn1nccc1C#CC(CO)NC(=O)[C@@H]1C[C@@H](O)CN1C(=O)[C@H](C(C)C)n1cc(-c2ccc(COc3c(-c4c(C)c(F)cc5[nH]ncc45)c(C4CC4)cc4c(N5C[C@@H]6C[C@H]5CN6)nc(OC[C@H](C)OC)nc34)cc2)nn1 (stereo in doubt) [Example 34, (2S,4R)-1-((2S)-2-(4-(4-(((4-((1S,4S)-2,5-diazabicyclo[2.2.1]heptan-2-yl)-6-cyclopropyl-7-(6-fluoro-5-methyl-1H-indazol-4-yl)-2-((S)-2-methoxypropoxy)quinazolin-8-yl)oxy)methyl)phenyl)-1H-1,2,3-triazol-1-yl)-3-methylbutanoyl)-N—((R)-4-(1-ethyl-1H-pyrazol-5-yl)-1-hydroxybut-3-yn-2-yl)-4-hydroxypyrrolidine-2-carboxamide]
10 | 10 to 100 | 10 to 100 |  | CO[C@@H](C)COc1nc(N2CC3CCC(C2)N3)c2cc(C3CC3)c(-c3c(C)c(F)cc4[nH]ncc34)c(OCc3ccc(-c4cn([C@H](C(=O)N5C[C@H](O)C[C@H]5C(=O)N[C@@H](CO)c5ccc(-c6scnc6C)cc5)C(C)C)nn4)cc3)c2n1 (single isomer, unassigned) [Example 12A]
11 | < 10 |  | 10 to 100 | CO[C@@H](C)COc1nc(N2C[C@H]3C[C@@H]2CN3)c2cc(C3CC3)c(-c3c(C)c(F)cc4[nH]ncc34)c(OCc3ccc(-c4cn([C@H](C(=O)N5C[C@H](O)C[C@H]5C(=O)N[C@@H](C)c5ccc(-c6scnc6C)cc5)C(C)C)nn4)cc3)c2n1 (single isomer, unassigned) [Example 3A]

Row | SMILES | DC50 (KRAS (G12D)) [nM] | IC50 (AsPC-1 cells; Homo sapiens, ASPC1, 144 h) [nM] | IC50 (AsPC-1 cells) [nM]
12 | CO[C@H]1C[C@H](Oc2nc(N(C)[C@H]3CCNC3)c3cc(C4CC4)c(-c4c(C)c(F)cc5[nH]ncc45)c(OCc4ccc(-c5cn([C@H](C(=O)N6C[C@H](O)C[C@H]6C(=O)N[C@H](c6ccc(-c7scnc7C)c7c6CC7)[C@H](C)O)C(C)C)nn5)cc4)c3n2)C1 [Example 194, (2S,4R)-1-((2S)-2-(4-(4-(((6-cyclopropyl-7-(6-fluoro-5-methyl-1H-indazol-4-yl)-2-((1r,3S)-3-methoxycyclobutoxy)-4-(methyl((S)-pyrrolidin-3-yl)amino)quinazolin-8-yl)oxy)methyl)phenyl)-1H-1,2,3-triazol-1-yl)-3-methylbutanoyl)-4-hydroxy-N-((1R,2S)-2-hydroxy-1-(5-(4-methylthiazol-5-yl)bicyclo[4.2.0]octa-1(6),2,4-trien-2-yl)propyl)pyrrolidine-2-carboxamide] | < 10 | < 10 | 
13 | CO[C@H]1C[C@H](Oc2nc(N(C)[C@@H]3CCNC3)c3cc(C4CC4)c(-c4c(C)c(F)cc5[nH]ncc45)c(OCc4ccc(-c5cn([C@H](C(=O)N6C[C@H](O)C[C@H]6C(=O)N[C@H](c6ccc(-c7scnc7C)cc6)[C@H](C)O)C(C)C)nn5)cc4)c3n2)C1 [Example 202, (2S,4R)-1-((2S)-2-(4-(4-(((6-cyclopropyl-7-(6-fluoro-5-methyl-1H-indazol-4-yl)-2-((1r,3R)-3-methoxycyclobutoxy)-4-(methyl((R)-pyrrolidin-3-yl)amino)quinazolin-8-yl)oxy)methyl)phenyl)-1H-1,2,3-triazol-1-yl)-3-methylbutanoyl)-4-hydroxy-N-((1R,2S)-2-hydroxy-1-(4-(4-methylthiazol-5-yl)phenyl)propyl)pyrrolidine-2-carboxamide] | < 10 | < 10 | 
